Experimental data published in patent publication US7078499B2, “Nucleotide analogues comprising a reporter moiety and a polymerase enzyme blocking moiety” (GE Healthcare UK Limited, priority 2000, dated 2006).

Key:
Format in all cases: biochemical
Sequenase 2™ = target: T1, Sequenase 2™ (Escherichia phage T7, UniProt P00581, DEL118-145); assay: Mesophilic DNA polymerase primer extension, Seq; set-up: key to result of incorporation (termination / further chain extension): T: Incorporation results in termination; E: Incorporation permits further chain extension; T/E: Predominant product is primer extended by one base, but evidence of some further extension also observed; details: DNA template, 37° C. for 20–40 minutes; for primer extended by at least one base within assay time (grade): TTP replaced entirely by test compound
T1 construct: purchased AP Biotech
T1 sequence (P0AA25 2-109, stated change not applied): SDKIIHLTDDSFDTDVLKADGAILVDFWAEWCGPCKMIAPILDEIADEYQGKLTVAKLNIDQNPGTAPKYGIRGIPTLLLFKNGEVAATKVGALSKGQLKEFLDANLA
T1 sequence (P00581 other isoform, or with tags, fused parts or gaps DEL118-145): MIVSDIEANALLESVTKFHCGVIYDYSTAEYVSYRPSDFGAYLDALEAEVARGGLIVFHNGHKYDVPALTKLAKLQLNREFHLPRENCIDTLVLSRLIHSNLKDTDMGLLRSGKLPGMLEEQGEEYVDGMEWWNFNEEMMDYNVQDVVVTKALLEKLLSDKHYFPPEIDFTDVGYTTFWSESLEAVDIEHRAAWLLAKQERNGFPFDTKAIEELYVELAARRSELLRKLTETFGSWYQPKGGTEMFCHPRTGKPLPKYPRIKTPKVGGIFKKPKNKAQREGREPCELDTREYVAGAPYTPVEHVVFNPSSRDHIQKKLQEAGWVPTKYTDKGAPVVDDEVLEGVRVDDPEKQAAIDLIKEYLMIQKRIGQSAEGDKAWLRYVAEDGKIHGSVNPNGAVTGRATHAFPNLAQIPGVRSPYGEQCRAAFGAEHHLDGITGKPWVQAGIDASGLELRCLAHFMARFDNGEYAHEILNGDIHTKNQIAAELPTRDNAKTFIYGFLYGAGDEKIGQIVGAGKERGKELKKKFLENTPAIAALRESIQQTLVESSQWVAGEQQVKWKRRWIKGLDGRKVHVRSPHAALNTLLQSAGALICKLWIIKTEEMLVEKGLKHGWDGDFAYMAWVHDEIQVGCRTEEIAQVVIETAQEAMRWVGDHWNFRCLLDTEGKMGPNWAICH
Experimental: DNA polymerase assays were performed using Sequence 1 as primer and Sequence 2 as template. • Sequence 1 5′[Cy3][…] 3′ • Sequence 2 5′AT […]3′
(§1) The template (Sequence 2) was designed such that the base (underlined) immediately adjacent to the 3′ end of the hybridised primer is complementary to the nucleotide test compound. Nucleotide test compounds were compounds (6) (4′-C-(glycylaminomethyl)thymidine triphosphate), (8) (4′-C-(N-trifluoroacetyaminomethyl)thymidine triphosphate) and (9) (4′-C-(aminomethyl)thymidine triphosphate) as described above.
(§2) Primer extension reactions were performed using the above primers in the presence of 40 to 80 μM of nucleotide triphosphates. Positive control reactions contained all four native nucleotide triphosphates. For the other reactions the TTP was replaced with either a 2:1 ratio of […] for the terminator control, or entirely by the test compound The enzymes were used at a final concentration of 0.175 units/μl and a magnesium ion concentration of 2.5 mM in buffers supplied by the manufacturer. The primer and template concentrations were 0.5 pmol/μl and 2 pmol/μl respectively.
(§3) Extension reactions preformed with mesophilic polymerases were carried out by mixing all the components of the reaction except the enzyme and heating to 70° C. for 5 min. After the reactions had cooled to room temperature 0.175 units of the enzyme were added and the reactions heated to 37° C. for 20–40 minutes. The following enzymes were used: T7 DNA polymerase (T7); Sequenase 2™ (Seq); Klenow fragment of DNA polymerase 1 (Klen); phi-29 DNA polymerase (Phi-29); T4 DNA polymerase (T4) (all from AP Biotech) and Bst DNA polymerase (Bst) (Cambio Ltd).
(§4) The reactions were stopped by adding a 0.5 volume aliquot of 80% formamide containing 0.1% (w/v) bromophenol blue and 0.1% (w/v) cresol blue. The reaction products were separated by denaturing gel electrophoresis at a constant power of 45 W on 16% polyacrylamide gels containing 50% urea.
(§5) Gels were scanned for Cy3 fluorescence on a Molecular Dynamics Fluorimager and the data analysed using Molecular Dynamics ImageQuant 5 software.
(§6) The incorporation of a test nucleotide triphosphate results in the appearance on a polyacrylamide gel of a single band corresponding to a single base extension product. If, however, the enzyme adds additional bases then further bands would be observed that corresponded to either the full-length product or positions of other complementary bases in the template.

HIV RT = target: T2, HIV RT (Human immunodeficiency virus type 1 group M subtype B, UniProt P03366); assay: Mesophilic reverse transcriptase reaction, HIV RT; set-up: key to result of incorporation (termination / further chain extension): T: Incorporation results in termination; E: Incorporation permits further chain extension; T/E: Predominant product is primer extended by one base, but evidence of some further extension also observed; key to primer extended by at least one base within assay time (grade): −: No extension within assay time; +/−: up to 25% of primer extended by at least one base within assay time; +: up to 50% of primer extended by at least one base within assay time; ++: up to 75% of primer extended by at least one base within assay time; +++: essentially all primer extended by at least one base within assay time; details: RNA template, final enzyme concentration of 4 units/μl
T2 construct: AMV RT; MuLV RT; SAV RT and HIV RT all from APBiotech; purchased APBiotech
Experimental: (§7) DNA polymerase assays were performed using Sequence 1 as primer and Sequence 2 as template. • Sequence 1 5′[Cy3]TAACTCATTAACAGGATC 3′ • Sequence 2 5′AT TCGCGGTATTCTGGTATGAAGCTTTTAGATCCTGTTAATGAGTTA GTA3′
as §1, §2, §3
Reverse transcriptase reactions were performed essentially as described above for thermophilic and mesophilic enzymes. The template for these reactions was the RNA equivalent of sequence 2. All the thermophilic enzymes were assayed in Tth reaction buffer (Cambio Ltd, Cambridge UK) containing 2.5 mM Manganese ions. The following enzymes were used: Thermosequenase (TS1); Thermosequenase II (TSII); delta Tts DNA polymerase (deltaTts); delta Tts D DNA polymerase (deltaTtsD) (all from APBiotech); Retrotherm reverse transcriptase (Retroth) (Cambio Ltd); Tth DNA polymerase (Tth) (Cambio Ltd.).
Mesophilic reverse transcriptases (AMV RT; MuLV RT; SAV RT and HIV RT all from APBiotech) were assayed in their respective buffers with a final enzyme concentration of 4 units/μl.
as §4, §5, §6

Tth DNA polymerase = target: T3, Tth DNA polymerase (Thermus thermophilus, UniProt P52028); assay: Thermostable DNA polymerase primer extension, Tth; set-up: key to result of incorporation (termination / further chain extension): T: Incorporation results in termination; E: Incorporation permits further chain extension; T/E: Predominant product is primer extended by one base, but evidence of some further extension also observed; details: DNA template, 45° C. for 20–40 minutes; for primer extended by at least one base within assay time (grade): TTP replaced entirely by test compound
T3 construct: purchased APBiotech
T3 sequence (P52028 whole entry): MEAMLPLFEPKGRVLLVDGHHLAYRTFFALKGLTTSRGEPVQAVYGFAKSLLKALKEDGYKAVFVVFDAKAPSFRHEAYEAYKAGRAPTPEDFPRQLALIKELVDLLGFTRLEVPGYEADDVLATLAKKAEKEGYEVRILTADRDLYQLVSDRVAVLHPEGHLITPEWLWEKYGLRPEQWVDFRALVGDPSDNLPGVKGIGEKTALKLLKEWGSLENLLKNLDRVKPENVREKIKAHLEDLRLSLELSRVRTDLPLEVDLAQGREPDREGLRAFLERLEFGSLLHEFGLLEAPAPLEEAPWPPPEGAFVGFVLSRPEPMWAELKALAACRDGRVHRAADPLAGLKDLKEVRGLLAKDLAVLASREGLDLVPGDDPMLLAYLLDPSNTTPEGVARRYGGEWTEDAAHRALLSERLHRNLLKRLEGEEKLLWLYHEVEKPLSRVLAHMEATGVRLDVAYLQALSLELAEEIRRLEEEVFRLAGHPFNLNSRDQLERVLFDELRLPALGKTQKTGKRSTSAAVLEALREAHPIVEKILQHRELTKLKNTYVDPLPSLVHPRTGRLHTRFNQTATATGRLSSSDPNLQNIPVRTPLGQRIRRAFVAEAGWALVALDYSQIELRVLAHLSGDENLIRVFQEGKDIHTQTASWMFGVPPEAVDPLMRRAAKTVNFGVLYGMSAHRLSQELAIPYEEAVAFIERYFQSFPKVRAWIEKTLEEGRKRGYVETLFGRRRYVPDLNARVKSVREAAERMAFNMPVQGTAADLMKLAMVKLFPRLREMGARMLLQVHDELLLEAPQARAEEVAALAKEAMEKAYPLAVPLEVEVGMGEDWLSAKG
Experimental: as §7, §1, §2
Extension reactions with thermophilic enzymes were performed by initially denaturing the fully assembled reactions at 70° C. for 5 min. followed by 45° C. for 20–40 minutes. The following enzymes were used: Taq DNA polymerase (Taq); Thermosequenase (TS); Thermosequenase II (TSII); Thermosequenase E (TSE), Tfl DNA polymerase (Tfl); Tth DNA polymerase (Tth), deltaTts DNA polymerase (deltaTts), deltaTts D DNA polymerase (dettaTTSD) (all from APBiotech); Pfu DNA polymerase (Pfu) (Stratagene Ltd); Vent™ DNA polymerase (Vent) (New England Biolabs).
as §4, §5, §6

AMV RT = assay: Mesophilic reverse transcriptase reaction, AMV RT; set-up: key: −: No extension within assay time; +/−: up to 25% of primer extended by at least one base within assay time; +: up to 50% of primer extended by at least one base within assay time; ++: up to 75% of primer extended by at least one base within assay time; +++: essentially all primer extended by at least one base within assay time; details: RNA template, final enzyme concentration of 4 units/μl
Experimental: as §7, §1, §2, §3
Reverse transcriptase reactions were performed essentially as described above for thermophilic and mesophilic enzymes. The template for these reactions was the RNA equivalent of sequence 2. […]
Gels were scanned for Cy3 fluorescence on a Molecular Dynamics Fluorimager and the data analysed using Molecular Dynamics ImageQuant 5 software. […]

Compound | result of incorporation (termination / further chain extension) (Sequenase 2™) | primer extended by at least one base within assay time (grade) (Sequenase 2™) | primer extended by at least one base within assay time (grade) (HIV RT) | result of incorporation (termination / further chain extension) (HIV RT) | result of incorporation (termination / further chain extension) (Tth DNA polymerase) | primer extended by at least one base within assay time (grade) (Tth DNA polymerase) | primer extended by at least one base within assay time (grade) (AMV RT)
4′-C-(Aminomethyl)thymidine triphosphate [compound (9)] | T | + (up to 50% of primer extended by at least one base within assay time) | +++ | E | T | ++ (up to 75% of primer extended by at least one base within assay time) | −
Cc1cn([C@H]2C[C@H](O)[C@@](CNC(=O)C(F)(F)F)(COP(=O)(O)OP(=O)(O)OP(=O)(O)O)O2)c(=O)[nH]c1=O [compound (8), 4′-C-(N-trifluoroacetylaminomethyl)thymidine triphosphate] | T | + (up to 50% of primer extended by at least one base within assay time) | +++ | E | T | ++ (up to 75% of primer extended by at least one base within assay time) | −
4′-C-(Glycylaminomethyl)thymidine triphosphate [compound (6)] | T | + (up to 50% of primer extended by at least one base within assay time) | +++ | E | T | + (up to 50% of primer extended by at least one base within assay time) | −
